For this assay, the system named is white rabbit. Nature of the assay: intraocular pressure-lowering effect of single and combined eye drop administration in white rabbits. To be noted: for IOP: intraocular pressure, 0 h: initial intraocular pressure immediately before application; for IOP: intraocular pressure, 0 h / IOP: intraocular pressure, 0.5 h / IOP: intraocular pressure, 1 h: n = 10, Compound 1 0.4% 50 μL, brimonidine 0.1% 50 μL; for IOP: intraocular pressure, 0.5 h: 0.5 h after application; for IOP: intraocular pressure, 1 h: 1 h after application. In kind it is in vivo. The protocol:
To investigate the usefulness of the combination of (S)-(−)-1-(4-fluoro-5-isoquinolinesulfonyl)-2-methyl-1,4-homopiperazine (Compound 1) and an α2 agonist, intraocular pressure-lowering effect was compared between the case where each drug was singly administered to an experimental animal and the case where the drugs were administered to an experimental animal in combination.
(S)-(−)-1-(4-fluoro-5-isoquinolinesulfonyl)-2-methyl-1,4-homopiperazine hydrochloride dihydrate was dissolved in physiological saline, and the solution was then neutralized (pH 6.0) with addition of sodium dihydrogen phosphate and sodium hydroxide to prepare a solution of Compound 1 at a desired concentration.
Commercially available brimonidine (Senju Pharmaceutical Co., Ltd., AIPHAGAN eye drop 0.1%) was directly used.
The intraocular pressure-lowering effect of combined administration of Compound 1 and brimonidine was investigated. As controls, the intraocular pressure-lowering effect of single administration of Compound 1 and that of single administration of brimonidine were further investigated.
Solution of Compound 1: 0.4% solution (amount of application: 50 μL)
Brimonidine: 0.1% eye drop (amount of application: 50 μL)
Experimental animal: white rabbit (sex: male, 10 rabbits per group)
1) One drop of […] oxybuprocaine hydrochloride eye drop (trade name: Benoxil 0.4% solution) was applied to both eyes of an experimental animal for local anesthesia (data were acquired only from the eye to which the eye drop was applied).
2) The intraocular pressure was measured immediately before administration of a solution of a test compound, and the measurement was used as the initial intraocular pressure.
3) The solution of Compound 1 was applied to one eye of the experimental animal, and subsequently the solution of brimonidine was applied to the same eye.
4) One drop of the 0.4% oxybuprocaine hydrochloride eye drop was applied to each eye for local anesthesia 0.5 hours, 1 hour, 2 hours, 3 hours, 4 hours, and 5 hours after the application of the agents, and the intraocular pressure was then measured.
Compound 1 was singly applied, and a test was performed at the same measurement times as in the combined administration test.
A test was performed using the same method as in the single administration test except that the test solution in the single administration of Compound 1 was replaced with that of brimonidine.
The intraocular pressure was represented as an amount of change from the initial intraocular pressure. For statistical processing, Stat Preclinica Client 1.1 with parametric Tukey's multiple comparison was used.

Molecules are shown by their SMILES.

As to `Brc1c(NC2=NCCN2)ccc2nccnc12` [Brimonidine, brimonidine], the “IOP: intraocular pressure, 0 h” value is 24.2 ± 1.3 mmHg; the “IOP: intraocular pressure, 0.5 h” value was found to be 25.2 ± 0.9 mmHg; the “IOP: intraocular pressure, 1 h” value was 19.4 ± 1.2 mmHg. Further, the “intraocular pressure-lowering action 0.5 hours after application of an eye drop (in words)” value (0.5 hours after application) was “no intraocular pressure-lowering action”.

Take `C[C@H]1CNCCCN1S(=O)(=O)c1cccc2cncc(F)c12` [Compound 1, (S)-(−)-1-(4-fluoro-5-isoquinolinesulfonyl)-2-methyl-1,4-homopiperazine]: the “IOP: intraocular pressure, 0 h” value amounted to 26.5 ± 0.8 mmHg; the “IOP: intraocular pressure, 0.5 h” value is 20.5 ± 1.2 mmHg; the “IOP: intraocular pressure, 1 h” value was found to be 15.9 ± 1.0 mmHg.

The values above are taken from patent US20200038397A1, “PHARMACOTHERAPY FOR PREVENTING OR TREATING GLAUCOMA” (KOWA COMPANY, LTD., priority 2014, published 2020).
